# Laboratory results: ChEMBL document CHEMBL2406920, “Synthesis, biological evaluation, X-ray molecular structure and molecular docking studies of RGD mimetics containing 6-amino-2,3-dihydroisoindolin-1-one fragment as ligands of integrin αIIbβ₃” (Bioorg Med Chem, 2013)
# Assays:
# [1] = biological target: Integrin alpha-IIb/beta-3 (Homo sapiens, UniProt P05106+P08514); assay: Inhibition of FITC-labeled fibrinogen binding to integrin alpha2bbeta3 receptor in human platelets by flow cytometry
# Platelet = assay: Inhibition of ADP-induced human platelet aggregation in platelet-rich plasma by Born's method; format: functional
# Integrin alpha-IIb/beta-3, sequence (P05106 27-788 limits assumed): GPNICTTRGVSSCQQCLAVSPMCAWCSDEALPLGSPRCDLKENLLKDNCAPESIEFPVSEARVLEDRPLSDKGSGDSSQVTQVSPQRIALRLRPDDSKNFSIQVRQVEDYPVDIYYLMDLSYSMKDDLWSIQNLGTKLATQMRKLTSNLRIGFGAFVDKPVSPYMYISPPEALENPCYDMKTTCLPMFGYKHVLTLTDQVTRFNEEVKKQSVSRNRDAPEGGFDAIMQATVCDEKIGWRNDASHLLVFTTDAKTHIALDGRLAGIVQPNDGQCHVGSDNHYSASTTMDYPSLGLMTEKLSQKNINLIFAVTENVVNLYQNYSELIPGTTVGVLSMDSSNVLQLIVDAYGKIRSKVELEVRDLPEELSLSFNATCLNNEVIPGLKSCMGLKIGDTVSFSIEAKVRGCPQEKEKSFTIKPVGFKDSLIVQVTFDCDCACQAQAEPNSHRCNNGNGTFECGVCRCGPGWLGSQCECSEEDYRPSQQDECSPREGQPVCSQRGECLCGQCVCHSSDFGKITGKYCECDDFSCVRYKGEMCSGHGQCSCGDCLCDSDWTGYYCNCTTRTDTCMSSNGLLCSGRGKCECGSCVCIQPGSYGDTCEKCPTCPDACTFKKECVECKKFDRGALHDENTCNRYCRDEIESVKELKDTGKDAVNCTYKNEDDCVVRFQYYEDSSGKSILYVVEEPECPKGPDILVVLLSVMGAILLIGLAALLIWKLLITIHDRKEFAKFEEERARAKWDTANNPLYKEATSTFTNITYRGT
# Integrin alpha-IIb/beta-3, sequence (P08514 32-887 limits assumed): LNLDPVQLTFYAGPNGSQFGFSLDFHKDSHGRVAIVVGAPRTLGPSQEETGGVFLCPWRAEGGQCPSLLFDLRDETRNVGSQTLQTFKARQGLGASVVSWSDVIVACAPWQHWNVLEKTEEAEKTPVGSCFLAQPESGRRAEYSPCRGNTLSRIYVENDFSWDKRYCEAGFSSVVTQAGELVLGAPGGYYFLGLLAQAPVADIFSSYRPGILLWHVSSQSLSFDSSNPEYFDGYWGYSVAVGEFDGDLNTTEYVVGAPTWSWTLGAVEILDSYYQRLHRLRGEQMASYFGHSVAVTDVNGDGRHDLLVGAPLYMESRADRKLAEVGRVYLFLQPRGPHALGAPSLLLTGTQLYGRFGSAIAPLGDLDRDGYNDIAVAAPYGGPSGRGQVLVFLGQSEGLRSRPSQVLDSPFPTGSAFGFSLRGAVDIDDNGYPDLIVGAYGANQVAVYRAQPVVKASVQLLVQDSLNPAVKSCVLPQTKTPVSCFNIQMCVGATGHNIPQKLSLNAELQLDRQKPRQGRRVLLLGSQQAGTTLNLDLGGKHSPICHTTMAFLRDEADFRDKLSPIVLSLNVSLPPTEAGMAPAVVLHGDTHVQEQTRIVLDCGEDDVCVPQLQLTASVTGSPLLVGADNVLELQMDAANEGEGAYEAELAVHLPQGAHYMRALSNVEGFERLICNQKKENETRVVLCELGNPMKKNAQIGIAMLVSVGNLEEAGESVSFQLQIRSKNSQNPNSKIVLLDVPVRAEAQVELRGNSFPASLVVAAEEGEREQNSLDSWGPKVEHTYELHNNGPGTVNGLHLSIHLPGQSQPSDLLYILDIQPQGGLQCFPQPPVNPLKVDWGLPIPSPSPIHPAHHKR
# Integrin alpha-IIb/beta-3, sequence (P08514 891-1039 limits assumed): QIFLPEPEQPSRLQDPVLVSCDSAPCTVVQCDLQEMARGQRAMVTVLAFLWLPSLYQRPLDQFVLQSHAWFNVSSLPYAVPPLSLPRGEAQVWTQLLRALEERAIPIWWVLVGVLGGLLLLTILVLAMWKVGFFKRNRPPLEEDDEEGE
SMILES,IC50 [1] [nM],IC50 (Platelet) [nM]
O=C(O)CN1Cc2ccc(NC(=O)c3ccc(C4CCNCC4)cc3)cc2C1=O,270,–
O=C(O)CN1Cc2ccc(NC(=O)c3ccc4c(c3)CNCC4)cc2C1=O,1200,–
O=C(O)CCN1Cc2ccc(NC(=O)CCCC3CCNCC3)cc2C1=O,5.5,–
O=C(O)CCN1Cc2ccc(NC(=O)c3ccc(C4CCNCC4)cc3)cc2C1=O,6.8,–
O=C(O)CCN1Cc2ccc(NC(=O)c3ccc4c(c3)CNCC4)cc2C1=O,6.5,–
O=C(O)CCCN1Cc2ccc(NC(=O)CC3CCNCC3)cc2C1=O,–,1800
O=C(O)CN1Cc2ccc(NC(=O)CC3CCNCC3)cc2C1=O,–,51000
O=C(O)CN1Cc2ccc(NC(=O)c3ccc(N4CCNCC4)cc3)cc2C1=O,–,3300
O=C(O)CCN1Cc2ccc(NC(=O)CC3CCNCC3)cc2C1=O,–,7400
O=C(O)CCN1Cc2ccc(NC(=O)c3cccc(N4CCNCC4)c3)cc2C1=O,–,2700
CC(CC(=O)O)N1Cc2ccc(NC(=O)CCCC3CCNCC3)cc2C1=O (racemic),350,–
CC(CC(=O)O)N1Cc2ccc(NC(=O)c3ccc(N4CCNCC4)cc3)cc2C1=O (racemic),37,–
CC(CC(=O)O)N1Cc2ccc(NC(=O)c3ccc4c(c3)CNCC4)cc2C1=O (racemic),6.5,–
CC(CC(=O)O)N1Cc2ccc(NC(=O)c3cccc(N4CCNCC4)c3)cc2C1=O (racemic),–,62000
CC(CC(=O)O)N1Cc2ccc(NC(=O)CC3CCNCC3)cc2C1=O (racemic),–,2700
CCCCS(=O)(=O)N[C@@H](Cc1ccc(OCCCCC2CCNCC2)cc1)C(=O)O [TIROFIBAN],–,32
